Laboratory results published in patent publication US20240116845A1, “INDENE COMPOUNDS, PHARMACEUTICAL COMPOSITIONS THEREOF, AND THEIR THERAPEUTIC APPLICATIONS” (NucMito Pharmaceuticals Co., Ltd., priority 2021, published 2024).

Columns and labels:
Format in all cases: cell-based
[1] = system: alpha-smooth muscle actin (α-SMA); experiment: Inhibition of TGF-β induced expression of alpha-smooth muscle actin in CFSC cells (western blot); settings: compound at 10 μM, TGF-β (10 ng/mL), 24 hours
Method in brief: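 Rat CCl4-treated hepatic stellate (CFSC) cells in serum-free DMEM were given compound at 10 μM plus TGF-β 10 ng/mL for 24 h at 37 °C. α-SMA measured by western blot with β-actin, bands quantified densitometrically. Percent inhibition is the decrease in band intensity versus TGF-β alone.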

[2] = system: A431 (epidermoid carcinoma); experiment: Antiproliferative activity, CCK-8 cell viability; settings: Homo sapiens, A-431, 72 h, read-out: Inhibition of Cancerous Cells, A431; for inhibition at 3.3 µM: compound concentration of 3.3 μM; for inhibition at 10 µM: compound concentration of 10 μM; for inhibition at 30 µM: compound concentration of 30 μM
Method in brief: (§1)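 Cells in DMEM with 10% FBS were treated with compound at 3.3, 10 or 30 μM for 72 h at 37°C. Viability was read by CCK-8 absorbance at 450 nm and expressed relative to DMSO-treated cells. Growth inhibition was binned as ≥50%, 30–50% or <30%.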

[3] = system: A549 (lung adenocarcinoma); experiment: Antiproliferative activity, CCK-8 cell viability; settings: Homo sapiens, 72 h, read-out: Inhibition of Cancerous Cells, A549; for inhibition at 3.3 µM: compound concentration of 3.3 μM; for inhibition at 10 µM: compound concentration of 10 μM; for inhibition at 30 µM: compound concentration of 30 μM
[4] = system: B16F10 (malignant melanoma); experiment: Antiproliferative activity, CCK-8 cell viability; settings: Mus musculus, B16-F10, 72 h, read-out: Inhibition of Cancerous Cells, B16F10; for inhibition at 3.3 µM: compound concentration of 3.3 μM; for inhibition at 10 µM: compound concentration of 10 μM; for inhibition at 30 µM: compound concentration of 30 μM
Method in brief: as §1

HeLa (cervical cancer) = experiment: Antiproliferative activity, CCK-8 cell viability; settings: Homo sapiens, 72 h, read-out: Inhibition of Cancerous Cells, HELA; for inhibition at 3.3 µM: compound concentration of 3.3 μM; for inhibition at 10 µM: compound concentration of 10 μM; for inhibition at 30 µM: compound concentration of 30 μM
HepG2 (liver cancer) = experiment: Antiproliferative activity, CCK-8 cell viability; settings: Homo sapiens, 72 h, read-out: Inhibition of Cancerous Cells, HepG2; for inhibition at 3.3 µM: compound concentration of 3.3 μM; for inhibition at 10 µM: compound concentration of 10 μM; for inhibition at 30 µM: compound concentration of 30 μM
Method in brief: as §1

[5] = system: MDA-MB-231 (breast cancer); experiment: Antiproliferative activity, CCK-8 cell viability; settings: Homo sapiens, 72 h, read-out: Inhibition of Cancerous Cells, MDA-MB-231; for inhibition at 3.3 µM: compound concentration of 3.3 μM; for inhibition at 10 µM: compound concentration of 10 μM; for inhibition at 30 µM: compound concentration of 30 μM
Method in brief: as §1

SW480 (colon cancer) = experiment: Antiproliferative activity, CCK-8 cell viability; settings: Homo sapiens, 72 h, read-out: Inhibition of Cancerous Cells, SW480; for inhibition at 3.3 µM: compound concentration of 3.3 μM; for inhibition at 10 µM: compound concentration of 10 μM; for inhibition at 30 µM: compound concentration of 30 μM
Method in brief: as §1

Row | SMILES | inhibition at 10 µM [1] [%] | inhibition at 3.3 µM [2] [%] | inhibition at 10 µM [2] [%] | inhibition at 30 µM [2] [%] | inhibition at 3.3 µM [3] [%] | inhibition at 10 µM [3] [%] | inhibition at 30 µM [3] [%] | inhibition at 3.3 µM [4] [%] | inhibition at 10 µM [4] [%] | inhibition at 30 µM [4] [%] | inhibition at 3.3 µM (HeLa (cervical cancer)) [%] | inhibition at 10 µM (HeLa (cervical cancer)) [%] | inhibition at 30 µM (HeLa (cervical cancer)) [%] | inhibition at 3.3 µM (HepG2 (liver cancer)) [%] | inhibition at 10 µM (HepG2 (liver cancer)) [%] | inhibition at 30 µM (HepG2 (liver cancer)) [%] | inhibition at 3.3 µM [5] [%] | inhibition at 10 µM [5] [%] | inhibition at 30 µM [5] [%] | inhibition at 3.3 µM (SW480 (colon cancer)) [%] | other results
1 | CC1=C(CC(=O)O)c2cc(F)ccc2/C1=C/c1ccc(Oc2ccc(F)c(F)c2)cc1 [Compound E1, 2-[(1E)-5-Fluoro-2-methyl-1-({4-[3,4-difluorophenoxy]phenyl}methylidene)-1H-inden-3-yl]acetic acid] | ≥ 80 | 30 to 50 | ≥ 50 | ≥ 50 | 30 to 50 | ≥ 50 | ≥ 50 | < 30 | 30 to 50 | ≥ 50 | 30 to 50 | ≥ 50 | ≥ 50 | ≥ 50 | ≥ 50 | ≥ 50 | ≥ 50 | ≥ 50 | ≥ 50 | ≥ 50 | inhibition at 10 µM (SW480 (colon cancer)): ≥ 50%; inhibition at 30 µM (SW480 (colon cancer)): ≥ 50%
2 | COc1cccc2c1C(CC(=O)O)=C(C)/C2=C/c1ccc(COc2ccccc2)cc1 [Compound A11] | < 30 | ≥ 50 | ≥ 50 | ≥ 50 | 30 to 50 | 30 to 50 | 30 to 50 | ≥ 50 | ≥ 50 | ≥ 50 | < 30 | < 30 | < 30 | 30 to 50 | ≥ 50 | ≥ 50 | < 30 | 30 to 50 | ≥ 50 | ≥ 50 | inhibition at 10 µM (SW480 (colon cancer)): ≥ 50%; inhibition at 30 µM (SW480 (colon cancer)): ≥ 50%
3 | CC1=C(CC(=O)O)c2cc(F)ccc2/C1=C\c1ccc(COc2ccc(F)cc2F)cc1 [Compound A15, 2-[(1Z)-1-({4-[(2,4-Difluorophenoxy)methyl]phenyl}methylidene)-5-fluoro-2-methyl-1H-inden-3-yl]acetic acid] | ≥ 80 | < 30 | < 30 | ≥ 50 | 30 to 50 | ≥ 50 | ≥ 50 | ≥ 50 | ≥ 50 | ≥ 50 | 30 to 50 | ≥ 50 | ≥ 50 | ≥ 50 | ≥ 50 | ≥ 50 | ≥ 50 | ≥ 50 | ≥ 50 | ≥ 50 | inhibition at 10 µM (SW480 (colon cancer)): ≥ 50%; inhibition at 30 µM (SW480 (colon cancer)): ≥ 50%
4 | CC1=C(CC(=O)O)c2cc(F)ccc2/C1=C\c1ccc(F)c(Oc2ccccc2)c1 [Compound D23, 2-[(1Z)-5-Fluoro-1-(4-fluoro-3-(phenoxy)benzylidene)-2-methyl-1H-inden-3-yl]-acetic acid] | ≥ 80 | < 30 | 30 to 50 | ≥ 50 | < 30 | ≥ 50 | ≥ 50 | < 30 | ≥ 50 | ≥ 50 | < 30 | ≥ 50 | ≥ 50 | 30 to 50 | ≥ 50 | ≥ 50 | ≥ 50 | ≥ 50 | ≥ 50 | < 30 | inhibition at 10 µM (SW480 (colon cancer)): 30 to 50%; inhibition at 30 µM (SW480 (colon cancer)): ≥ 50%
5 | CC1=C(CC(=O)O)c2cc(F)ccc2/C1=C\c1ccccc1Oc1ccccc1 [Compound D19, 2-[(1Z)-5-Fluoro-1-(2-(phenoxy)benzylidene)-2-methyl-1H-inden-3-yl]-acetic acid] | < 30 | ≥ 50 | ≥ 50 | ≥ 50 | 30 to 50 | ≥ 50 | ≥ 50 | < 30 | 30 to 50 | ≥ 50 | 30 to 50 | ≥ 50 | ≥ 50 | ≥ 50 | ≥ 50 | ≥ 50 | < 30 | < 30 | ≥ 50 | ≥ 50 | inhibition at 10 µM (SW480 (colon cancer)): ≥ 50%; inhibition at 30 µM (SW480 (colon cancer)): ≥ 50%
6 | CC1=C(CC(=O)O)c2c(F)cc(F)cc2/C1=C\c1cccc(Oc2ccccc2)c1 [Compound D21, 2-[(1Z)-4,6-Difluoro-1-(3-(phenoxy)benzylidene)-2-methyl-1H-inden-3-yl]-acetic acid] | ≥ 80 | < 30 | 30 to 50 | ≥ 50 | 30 to 50 | ≥ 50 | ≥ 50 | ≥ 50 | ≥ 50 | ≥ 50 | < 30 | ≥ 50 | ≥ 50 | 30 to 50 | 30 to 50 | ≥ 50 | ≥ 50 | ≥ 50 | ≥ 50 | 30 to 50 | inhibition at 10 µM (SW480 (colon cancer)): ≥ 50%; inhibition at 30 µM (SW480 (colon cancer)): ≥ 50%
7 | CC1=C(CC(=O)O)c2cc(F)ccc2/C1=C\c1cccc(COc2ccccc2)c1 [Compound A5, (Z)-2-(5-Fluoro-2-methyl-1-(3-(phenoxymethyl)benzylidene)-1H-inden-3-yl)acetic acid] | ≥ 80 | < 30 | 30 to 50 | ≥ 50 | 30 to 50 | 30 to 50 | ≥ 50 | < 30 | 30 to 50 | ≥ 50 | < 30 | 30 to 50 | ≥ 50 | ≥ 50 | ≥ 50 | ≥ 50 | ≥ 50 | ≥ 50 | ≥ 50 | ≥ 50 | inhibition at 10 µM (SW480 (colon cancer)): ≥ 50%; inhibition at 30 µM (SW480 (colon cancer)): ≥ 50%
8 | COc1ccc2c(c1)/C(=C\c1ccc(COc3ccccc3)cc1)C(C)=C2CC(=O)O [Compound A12, (Z)-2-(6-Methoxy-2-methyl-1-(4-(phenoxymethyl)benzylidene)-1H-inden-3-yl)acetic acid] | ≥ 80 | < 30 | < 30 | ≥ 50 | 30 to 50 | ≥ 50 | ≥ 50 | ≥ 50 | ≥ 50 | ≥ 50 | 30 to 50 | ≥ 50 | ≥ 50 | 30 to 50 | 30 to 50 | ≥ 50 | < 30 | 30 to 50 | ≥ 50 | ≥ 50 | inhibition at 10 µM (SW480 (colon cancer)): ≥ 50%; inhibition at 30 µM (SW480 (colon cancer)): ≥ 50%
